In patent US20250136558A1, “PYRAZINE COMPOUNDS AS IRREVERSIBLE INHIBITORS OF FLT3” (BIOMEA FUSION, INC., priority 2021, published 2025):

What was measured:
Format in all cases: cell-based
MOLM-13 = experiment: Proliferation inhibition (CellTiter-Glo) in MOLM-13 cells; details: Homo sapiens, 96 h, MOLM-13 AML cells, heterozygous FLT3-ITD, IC50 (4 days)
Procedure, shortened: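 MOLM-13 human AML cells, heterozygous for FLT3-ITD, were grown in RPMI-1640 with 10% heat-inactivated FBS and 1% Pen-Strep. About 10,000 cells in 200 μL were seeded per well of 96-well plates. After 2 hours, compounds from DMSO stocks were dispensed at eight concentrations in duplicate, with 0.2% DMSO as the untreated control. Viability was read as CellTiter-Glo ATP luminescence, and IC50 was obtained from a four-parameter logistic fit.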

MV-4-11 = experiment: Proliferation inhibition (CellTiter-Glo) in MV-4-11 cells; details: Homo sapiens, MV4-11, 96 h, MV-4-11 AML cells, homozygous FLT3-ITD, IC50 (4 days)
Procedure, shortened: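 MV-4-11 human AML cells (homozygous FLT3-ITD) grown in RPMI-1640 with 10% heat-inactivated FBS and 1% Pen-Strep were seeded at about 10,000 cells per 200 μL in 96 well plates. Two hours later, compounds were dispensed at eight concentrations in duplicate. Viability was measured by CellTiter-Glo luminescence, and IC50 values came from four-parameter logistic non-linear regression against untreated cells (0.2% DMSO).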

K-562 = experiment: Proliferation inhibition (CellTiter-Glo) in K-562 cells; details: Homo sapiens, K562, 96 h, K-562 CML cells, no FLT3 mutations, IC50 (4 days)
Procedure, shortened: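 The CML line […] (ATCC: CRL-3343) was cultured in RPMI-1640 with 10% heat-inactivated FBS and 1% Pen-Strep at 37° C. Cells were seeded at about 10,000 per 200 μL in 96-well plates, and test compound was dispensed 2 hours later at eight concentrations in duplicate. Viability was measured as ATP luminescence with CellTiter-Glo. Untreated cells (0.2% DMSO) defined 100% proliferation, and IC50 values came from four-parameter logistic fits.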

SMILES | IC50 (MOLM-13) [nM] | IC50 (MV-4-11) [nM] | IC50 (K-562) [nM]
C[C@@H](C(=O)NCCCOc1cccc(Nc2nc(NC3CCOCC3)cnc2C(N)=O)c1)N(C)C(=O)/C=C/CN(C)C [Compound 130, (S,E)-3-((3-(3-(2-(4-(dimethylamino)-N-methylbut-2-enamido)propanamido)propoxy)phenyl)amino)-5-((tetrahydro-2H-pyran-4-yl)amino)pyrazine-2-carboxamide] | 10 to 100 | 1 to 10 | > 500
CCc1nc(C(N)=O)c(Nc2cc(CCNC(=O)[C@H](C(C)C)N(C)C(=O)/C=C/CN(C)C)cc(OC)c2)nc1NC1CCOCC1 [Compound 131, (S,E)-3-((3-(2-(2-(4-(dimethylamino)-N-methylbut-2-enamido)-3-methylbutanamido)ethyl)-5-methoxyphenyl)amino)-6-ethyl-5-((tetrahydro-2H-pyran-4-yl)amino)pyrazine-2-carboxamide] | 10 to 100 | 1 to 10 | > 500
CCc1nc(C(N)=O)c(Nc2cc(CCNC(=O)[C@H](C)N(C)C(=O)C#CCN(C)C)cc(OC)c2)nc1NC1CCOCC1 [Compound 136, (S)-3-((3-(2-(2-(4-(dimethylamino)-N-methylbut-2-ynamido)propanamido)ethyl)-5-methoxyphenyl)amino)-6-ethyl-5-((tetrahydro-2H-pyran-4-yl)amino)pyrazine-2-carboxamide] | 1 to 10 | < 1 | > 500
CCc1nc(C(N)=O)c(Nc2cccc(OCCCNC(=O)[C@H](C)N(C)C(=O)/C=C/CN3CC(F)C3)c2)nc1NC1CCOCC1 [Compound 139, (S,E)-6-Ethyl-3-((3-(3-(2-(4-(3-fluoroazetidin-1-yl)-N-methylbut-2-enamido)propanamido)propoxy)phenyl)amino)-5-((tetrahydro-2H-pyran-4-yl)amino)pyrazine-2-carboxamide] | 1 to 10 | < 1 | > 500

Second part, the compound after the results:

IC50 (MOLM-13) [nM] | IC50 (MV-4-11) [nM] | IC50 (K-562) [nM] | SMILES
1 to 10 | < 1 | > 500 | Cc1nc(C(N)=O)c(Nc2cccc(OCCCNC(=O)[C@H](C)N(C)C(=O)/C=C/CN(C)C)c2)nc1NC1CCOCC1 [Compound 132, (S,E)-3-((3-(3-(2-(4-(dimethylamino)-N-methylbut-2-enamido)propanamido)propoxy)phenyl)amino)-6-methyl-5-((tetrahydro-2H-pyran-4-yl)amino)pyrazine-2-carboxamide]
1 to 10 | < 1 | > 500 | C[C@@H](C(=O)NCCCOc1cccc(Nc2nc(NC3CCOCC3)c(C3CC3)nc2C(N)=O)c1)N(C)C(=O)/C=C/CN(C)C [Compound 133, (S,E)-6-cyclopropyl-3-((3-(3-(2-(4-(dimethylamino)-N-methylbut-2-enamido)propanamido)propoxy)phenyl)amino)-5-((tetrahydro-2H-pyran-4-yl)amino)pyrazine-2-carboxamide]
1 to 10 | < 1 | > 500 | CCc1nc(C(N)=O)c(Nc2cccc(OCCCNC(=O)[C@H](C)N(C)C(=O)/C=C/CN3CCC3)c2)nc1NC1CCOCC1 [Compound 134, (S,E)-3-((3-(3-(2-(4-(azetidin-1-yl)-N-methylbut-2-enamido)propanamido)propoxy)phenyl)amino)-6-ethyl-5-((tetrahydro-2H-pyran-4-yl)amino)pyrazine-2-carboxamide]
< 1 | < 1 | > 500 | CCc1nc(C(N)=O)c(Nc2cccc(CCNC(=O)[C@H](C)N(C)C(=O)/C=C/CN(C)C)c2)nc1NC1CCOCC1 [Compound 135, (S,E)-3-((3-(2-(2-(4-(dimethylamino)-N-methylbut-2-enamido)propanamido)ethyl)phenyl)amino)-6-ethyl-5-((tetrahydro-2H-pyran-4-yl)amino)pyrazine-2-carboxamide]
